Measurements: PubChem BioAssay (NCI)
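Results reflect a 48-hour exposure of cells in 96-well plates to compound at five concentrations. TGI is the concentration that stops growth completely.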

How the values were obtained:
Assay in all cases: NCI anticancer screen, dose series, 48 h
RPMI-8226 leukemia = tested on: RPMI-8226 leukemia
UACC-62 melanoma = tested on: UACC-62 melanoma
CCRF-CEM leukemia = tested on: CCRF-CEM leukemia
M14 melanoma = tested on: M14 melanoma
NCI-H23 lung = tested on: NCI-H23 lung
SF-539 CNS = tested on: SF-539 CNS
UO-31 renal = tested on: UO-31 renal
SNB-78 CNS = tested on: SNB-78 CNS
KM12 colon = tested on: KM12 colon
SK-MEL-28 melanoma = tested on: SK-MEL-28 melanoma
MALME-3M melanoma = tested on: MALME-3M melanoma
K-562 leukemia = tested on: K-562 leukemia
SNB-75 CNS = tested on: SNB-75 CNS
HT29 colon = tested on: HT29 colon
HCT-116 colon = tested on: HCT-116 colon
HL-60(TB) leukemia = tested on: HL-60(TB) leukemia
OVCAR-5 ovarian = tested on: OVCAR-5 ovarian
NCI-H522 lung = tested on: NCI-H522 lung
M19-MEL melanoma = tested on: M19-MEL melanoma
UACC-257 melanoma = tested on: UACC-257 melanoma
SF-268 CNS = tested on: SF-268 CNS
LXFL 529 NSCLC = tested on: LXFL 529 NSCLC
SF-295 CNS = tested on: SF-295 CNS
DMS 114 small cell lung = tested on: DMS 114 small cell lung
SR leukemia = tested on: SR leukemia
NCI-H460 lung = tested on: NCI-H460 lung
OVCAR-3 ovarian = tested on: OVCAR-3 ovarian
HOP-62 NSCLC = tested on: HOP-62 NSCLC
SK-MEL-2 melanoma = tested on: SK-MEL-2 melanoma
HOP-92 NSCLC = tested on: HOP-92 NSCLC
COLO 205 colon = tested on: COLO 205 colon
OVCAR-4 ovarian = tested on: OVCAR-4 ovarian
U251 CNS = tested on: U251 CNS
KM20L2 colon = tested on: KM20L2 colon
ACHN renal = tested on: ACHN renal
MOLT-4 leukemia = tested on: MOLT-4 leukemia
A549 NSCLC = tested on: A549 NSCLC
DMS 273 small cell lung = tested on: DMS 273 small cell lung
SNB-19 CNS = tested on: SNB-19 CNS
OVCAR-8 ovarian = tested on: OVCAR-8 ovarian
SK-OV-3 ovarian = tested on: SK-OV-3 ovarian
IGROV1 ovarian = tested on: IGROV1 ovarian
SK-MEL-5 melanoma = tested on: SK-MEL-5 melanoma
A498 renal = tested on: A498 renal
HCT-15 colon = tested on: HCT-15 colon
SN12C renal = tested on: SN12C renal
HCC-2998 colon = tested on: HCC-2998 colon
RXF 393 renal = tested on: RXF 393 renal
TK-10 renal = tested on: TK-10 renal
NCI-H226 lung = tested on: NCI-H226 lung
EKVX NSCLC = tested on: EKVX NSCLC
SW-620 colon = tested on: SW-620 colon
CAKI-1 renal = tested on: CAKI-1 renal
LOX IMVI melanoma = tested on: LOX IMVI melanoma
HOP-18 NSCLC = tested on: HOP-18 NSCLC
786-0 renal = tested on: 786-0 renal
RXF-631 renal = tested on: RXF-631 renal
DLD-1 colon = tested on: DLD-1 colon

Structure (SMILES): CCc1c(O)c(O)c(C(C)=O)c2c(O)c(-c3c(C)cc4c(CC)c(O)c(O)c(C(C)=O)c4c3O)c(C)cc12
- TGI (RPMI-8226 leukemia): 24.2 µM
- TGI (UACC-62 melanoma): 24.7 µM
- TGI (CCRF-CEM leukemia): 8.64 µM
- TGI (M14 melanoma): 21.6 µM
- TGI (NCI-H23 lung): 16.1 µM
- TGI (SF-539 CNS): 22.4 µM
- TGI (UO-31 renal): 22.3 µM
- TGI (SNB-78 CNS): 12.1 µM
- TGI (KM12 colon): 11.7 µM
- TGI (SK-MEL-28 melanoma): 27.2 µM
- TGI (MALME-3M melanoma): 31.5 µM
- TGI (K-562 leukemia): 11.3 µM
- TGI (SNB-75 CNS): 30.7 µM
- TGI (HT29 colon): 17.1 µM
- TGI (HCT-116 colon): 14.3 µM
- TGI (HL-60(TB) leukemia): 14.9 µM
- TGI (OVCAR-5 ovarian): 32.9 µM
- TGI (NCI-H522 lung): 14.8 µM
- TGI (M19-MEL melanoma): 30.8 µM
- TGI (UACC-257 melanoma): 24.3 µM
- TGI (SF-268 CNS): 37.1 µM
- TGI (LXFL 529 NSCLC): 16.5 µM
- TGI (SF-295 CNS): 11 µM
- TGI (DMS 114 small cell lung): 18.4 µM
- TGI (SR leukemia): > 100 µM
- TGI (NCI-H460 lung): 38.5 µM
- TGI (OVCAR-3 ovarian): 18 µM
- TGI (HOP-62 NSCLC): 27.4 µM
- TGI (SK-MEL-2 melanoma): 23 µM
- TGI (HOP-92 NSCLC): 10.4 µM
- TGI (COLO 205 colon): 21.4 µM
- TGI (OVCAR-4 ovarian): 26.5 µM
- TGI (U251 CNS): 21.4 µM
- TGI (KM20L2 colon): 17.6 µM
- TGI (ACHN renal): 28.8 µM

Structure (SMILES): CCOC(=O)Cc1csc(Nc2ccccc2[N+](=O)[O-])n1
- TGI (RPMI-8226 leukemia): > 100 µM
- TGI (MOLT-4 leukemia): > 100 µM
- TGI (UACC-62 melanoma): > 100 µM
- TGI (A549 NSCLC): > 100 µM
- TGI (CCRF-CEM leukemia): > 100 µM
- TGI (M14 melanoma): > 100 µM
- TGI (NCI-H23 lung): > 100 µM
- TGI (SF-539 CNS): > 100 µM
- TGI (UO-31 renal): > 100 µM
- TGI (DMS 273 small cell lung): > 100 µM
- TGI (SNB-19 CNS): > 100 µM
- TGI (SNB-78 CNS): > 100 µM
- TGI (KM12 colon): > 100 µM
- TGI (SK-MEL-28 melanoma): > 100 µM
- TGI (OVCAR-8 ovarian): > 100 µM
- TGI (SK-OV-3 ovarian): > 100 µM
- TGI (IGROV1 ovarian): > 100 µM
- TGI (SK-MEL-5 melanoma): > 100 µM
- TGI (MALME-3M melanoma): > 100 µM
- TGI (K-562 leukemia): > 100 µM
- TGI (SNB-75 CNS): > 100 µM
- TGI (HT29 colon): > 100 µM
- TGI (HCT-116 colon): > 100 µM
- TGI (A498 renal): > 100 µM
- TGI (HCT-15 colon): > 100 µM
- TGI (HL-60(TB) leukemia): > 100 µM
- TGI (SN12C renal): > 100 µM
- TGI (OVCAR-5 ovarian): > 100 µM
- TGI (NCI-H522 lung): > 100 µM
- TGI (M19-MEL melanoma): > 100 µM
- TGI (UACC-257 melanoma): > 100 µM
- TGI (SF-268 CNS): > 100 µM
- TGI (LXFL 529 NSCLC): > 100 µM
- TGI (HCC-2998 colon): > 100 µM
- TGI (RXF 393 renal): > 100 µM
- TGI (SF-295 CNS): > 100 µM
- TGI (DMS 114 small cell lung): > 100 µM
- TGI (TK-10 renal): > 100 µM
- TGI (SR leukemia): 61.3 µM
- TGI (NCI-H226 lung): > 100 µM
- TGI (NCI-H460 lung): > 100 µM
- TGI (EKVX NSCLC): > 100 µM
- TGI (OVCAR-3 ovarian): > 100 µM
- TGI (HOP-62 NSCLC): > 100 µM
- TGI (SK-MEL-2 melanoma): > 100 µM
- TGI (HOP-92 NSCLC): > 100 µM
- TGI (SW-620 colon): > 93.1 µM
- TGI (COLO 205 colon): > 100 µM
- TGI (CAKI-1 renal): > 100 µM
- TGI (LOX IMVI melanoma): > 70.2 µM
- TGI (OVCAR-4 ovarian): > 100 µM
- TGI (HOP-18 NSCLC): > 100 µM
- TGI (U251 CNS): > 100 µM
- TGI (KM20L2 colon): > 100 µM
- TGI (ACHN renal): > 100 µM
- TGI (786-0 renal): > 100 µM

Structure (SMILES): CC[C@@H]1NC(C(=O)OC)Cc2c1[nH]c1ccccc21 (some centres undefined)
- TGI (MOLT-4 leukemia): > 100 µM
- TGI (UACC-62 melanoma): > 100 µM
- TGI (A549 NSCLC): > 100 µM
- TGI (CCRF-CEM leukemia): > 100 µM
- TGI (M14 melanoma): > 100 µM
- TGI (NCI-H23 lung): > 100 µM
- TGI (SF-539 CNS): > 100 µM
- TGI (RXF-631 renal): > 100 µM
- TGI (UO-31 renal): > 100 µM
- TGI (DMS 273 small cell lung): > 100 µM
- TGI (SNB-19 CNS): > 100 µM
- TGI (SNB-78 CNS): > 100 µM
- TGI (KM12 colon): > 100 µM
- TGI (SK-MEL-28 melanoma): > 100 µM
- TGI (OVCAR-8 ovarian): > 100 µM
- TGI (DLD-1 colon): > 100 µM
- TGI (SK-OV-3 ovarian): > 100 µM
- TGI (IGROV1 ovarian): > 100 µM
- TGI (SK-MEL-5 melanoma): > 100 µM
- TGI (MALME-3M melanoma): > 100 µM
- TGI (K-562 leukemia): > 100 µM
- TGI (SNB-75 CNS): > 100 µM
- TGI (HT29 colon): > 100 µM
- TGI (HCT-116 colon): > 100 µM
- TGI (A498 renal): > 100 µM
- TGI (HCT-15 colon): > 100 µM
- TGI (HL-60(TB) leukemia): > 100 µM
- TGI (SN12C renal): > 100 µM
- TGI (OVCAR-5 ovarian): > 100 µM
- TGI (M19-MEL melanoma): > 100 µM
- TGI (UACC-257 melanoma): > 100 µM
- TGI (LXFL 529 NSCLC): > 100 µM
- TGI (HCC-2998 colon): > 100 µM
- TGI (SF-295 CNS): > 100 µM
- TGI (DMS 114 small cell lung): > 100 µM
- TGI (TK-10 renal): > 100 µM
- TGI (SR leukemia): > 100 µM
- TGI (NCI-H226 lung): > 100 µM
- TGI (NCI-H460 lung): > 100 µM
- TGI (EKVX NSCLC): > 100 µM
- TGI (OVCAR-3 ovarian): > 100 µM
- TGI (SK-MEL-2 melanoma): > 100 µM
- TGI (HOP-92 NSCLC): > 100 µM
- TGI (SW-620 colon): > 100 µM
- TGI (COLO 205 colon): > 100 µM
- TGI (CAKI-1 renal): > 100 µM
- TGI (LOX IMVI melanoma): > 100 µM
- TGI (OVCAR-4 ovarian): > 100 µM
- TGI (HOP-18 NSCLC): > 100 µM
- TGI (U251 CNS): > 100 µM
- TGI (KM20L2 colon): > 100 µM
- TGI (ACHN renal): > 100 µM
- TGI (786-0 renal): > 100 µM
